Measured values: patent publication US20210346663A1, “METHODS FOR IMPROVING DRUG EFFICACY” (Nuvaira, Inc., priority 2012, published 2021)

Experiment: Pulmonary function after vagus nerve disruption followed by drug administration in patients with obstructive lung disease
Type: in vivo
Conditions: drug given after nerve activity-modulating treatment
Description: For two treatments with similar mechanisms of action (e.g., vagus nerve disruption that eliminates or reduces acetylcholine production and pharmacological inhibition of acetylcholine production or release), one would expect that the combination of such treatments would result in less of an improvement than the combination of two treatments with different/complementary mechanisms of action.

Q: For `CC(C)[N+]1(C)[C@@H]2CC[C@H]1C[C@@H](OC(=O)C(CO)c1ccccc1)C2` (stereo partly shown) [ipratropium bromide], which “effect on lung functions of administration after vagus nerve disruption” value is on record?
A: additive effect
